Values quoted from earlier work in patent US20120035207A1, “Use of GABAA Receptor Agonists for the Treatment of Hearing, Vestibular and Attention Disorders, Intention Tremor and Restless Leg Syndrome” (priority 2003, published 2012).

Biological target: T1, a4β3δ receptor (Homo sapiens, UniProt P28472+P48169)
T1 construct: host or cells: mouse L(-tk) cells stably expressing the α4β3δ receptor (Brown et al; Adkins et al.)
Settings: reported by Brown et al, British J. Pharmacol., 136, 965-74 (2002)

T1 sequence (P48169 36-554): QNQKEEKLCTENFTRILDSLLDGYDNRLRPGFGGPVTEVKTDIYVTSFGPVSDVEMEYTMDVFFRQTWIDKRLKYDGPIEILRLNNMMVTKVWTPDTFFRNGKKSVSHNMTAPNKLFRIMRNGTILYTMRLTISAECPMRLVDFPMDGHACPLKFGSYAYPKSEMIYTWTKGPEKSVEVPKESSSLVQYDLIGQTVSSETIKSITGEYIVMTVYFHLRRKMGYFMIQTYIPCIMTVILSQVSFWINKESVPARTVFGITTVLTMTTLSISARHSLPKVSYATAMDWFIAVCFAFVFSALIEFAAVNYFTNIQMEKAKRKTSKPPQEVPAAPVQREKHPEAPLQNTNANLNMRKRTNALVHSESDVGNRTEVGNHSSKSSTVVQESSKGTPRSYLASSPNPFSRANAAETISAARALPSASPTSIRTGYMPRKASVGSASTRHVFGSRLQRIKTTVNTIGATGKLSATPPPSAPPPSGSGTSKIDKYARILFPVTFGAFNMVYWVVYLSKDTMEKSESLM
T1 sequence (P28472 26-473): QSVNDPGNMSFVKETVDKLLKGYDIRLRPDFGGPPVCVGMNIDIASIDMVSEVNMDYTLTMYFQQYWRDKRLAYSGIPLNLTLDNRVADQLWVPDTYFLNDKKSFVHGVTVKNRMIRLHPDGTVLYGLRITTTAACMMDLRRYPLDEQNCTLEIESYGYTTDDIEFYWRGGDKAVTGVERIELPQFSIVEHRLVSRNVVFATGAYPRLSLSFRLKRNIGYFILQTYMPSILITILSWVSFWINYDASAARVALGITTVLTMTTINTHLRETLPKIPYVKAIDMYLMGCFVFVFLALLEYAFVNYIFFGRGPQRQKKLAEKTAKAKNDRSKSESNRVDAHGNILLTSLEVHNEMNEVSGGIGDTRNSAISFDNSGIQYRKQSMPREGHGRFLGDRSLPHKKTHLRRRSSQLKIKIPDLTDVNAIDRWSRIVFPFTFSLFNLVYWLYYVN
T1 sequence (O14764 17-452 partner limits assumed): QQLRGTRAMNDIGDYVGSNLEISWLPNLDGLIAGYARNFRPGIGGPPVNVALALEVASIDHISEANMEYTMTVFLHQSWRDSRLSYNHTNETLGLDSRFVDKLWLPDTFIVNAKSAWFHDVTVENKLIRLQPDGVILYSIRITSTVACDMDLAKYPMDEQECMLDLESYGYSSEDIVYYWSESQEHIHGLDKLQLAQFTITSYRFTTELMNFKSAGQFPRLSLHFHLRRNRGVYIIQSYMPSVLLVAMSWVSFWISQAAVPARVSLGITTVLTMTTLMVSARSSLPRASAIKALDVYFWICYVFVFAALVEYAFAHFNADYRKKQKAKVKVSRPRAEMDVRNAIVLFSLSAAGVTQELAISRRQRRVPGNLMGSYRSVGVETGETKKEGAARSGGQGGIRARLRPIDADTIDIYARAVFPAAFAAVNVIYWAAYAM

For `Oc1noc2c1CCNC2` [Gaboxadol, 4,5,6,7-tetrahydroisoxazolo[5,4-c]pyridin-3-ol], the “agonist activity at the a4β3δ receptor” value is given as “potent agonist”.
